{"source": "paper PMC11943725", "about": "“Construction of a Plasmid-Free Escherichia coli Strain with Enhanced Heme Supply to Produce Active Hemoglobins” (Metabolites, 2025)", "target": "T1, human hemoglobin (hHb) (Homo sapiens, UniProt P68871+P69905)", "T1 construct": "gene HBA1; tetramer", "T1 sequence (P69905 2-142)": "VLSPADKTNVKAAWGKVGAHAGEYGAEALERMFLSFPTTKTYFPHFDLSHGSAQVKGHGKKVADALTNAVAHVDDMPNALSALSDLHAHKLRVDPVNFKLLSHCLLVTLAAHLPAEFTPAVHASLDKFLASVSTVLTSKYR", "T1 sequence (P68871 2-147)": "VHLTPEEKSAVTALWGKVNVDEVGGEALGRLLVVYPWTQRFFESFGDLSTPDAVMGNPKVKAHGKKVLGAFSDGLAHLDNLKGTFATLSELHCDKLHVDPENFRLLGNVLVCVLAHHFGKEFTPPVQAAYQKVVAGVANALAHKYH", "experiment": "peroxidase activity of purified protein with TMB Chromogen Solution, OD370", "assay_type": "biochemical", "conditions": "chromogenic peroxidase substrate; holo fraction incomplete", "data": [{"smiles": "Cc1cc(-c2cc(C)c(N)c(C)c2)cc(C)c1N", "note": "[TMB]", "values": [{"measurement": "peroxidase activity of purified protein with TMB Chromogen Solution, OD370", "result": "The peroxidase activities of purified proteins were detected using TMB Chromogen Solution"}]}]}
